{"source": "patent US20060099170A1", "about": "“Compositions for inducing increased levels of beta-chemokines and methods of use therefor” (priority 2002, published 2006)", "key": {"[1]": {"test_system": "activated PBMCs", "experiment": "β-chemokine levels (ELISA) in supernatants of activated PBMCs cultured with cell cycle arresting compounds", "type": "cell-based, human"}, "[2]": {"test_system": "activated PBMCs", "experiment": "Cell number / proliferation of activated PBMCs (trypan blue)", "type": "cell-based, human", "experimental": "(§1) Cell proliferation was measured by the trypan blue staining viability test, [^3H]thymidine incorporation in DNA, and the 3-(4,5-dimethylthiazol-2-yl)-2,5-diphenyl tetrazolium bromide (MTT) assay (Roche).\nTo this end, β-chemokine levels (production or availability) by activated PBMCs cultured in the presence of HU was investigated. HU is a G1 cytostatic drug that, by depleting intracellular nucleotide pools, arrests cell cycle progression in late G1 (Lori, et al., 1994). […] In the representative experiment depicted in FIG. 2, day 8 chemokine levels in cultures containing 100 μM HU were increased 3.4-fold for RANTES, 5.4-fold for MIP-1α, and 4-fold for MIP-1β compared with the untreated control. Because HU inhibits lymphocyte proliferation, chemokine values also were expressed as chemokine amount per viable cell. As expected, cell numbers were lower in the presence of the drug (FIG. 2C).\nThe agents evaluated were SB, APH, RC, and OL. SB and APH arrest the cell cycle in early and late G1, respectively (Korin, et al., 1998; Koostra, et al., 2000). RC and OL are purine-derivative drugs that arrest cell cycle progression in late G1 through inhibition of cyclin-dependent kinases (CDKs) (Gray, et al., 1999). […] The number of viable cells and chemokine levels are depicted. […]"}, "[3]": {"test_system": "CD8 lymphocytes", "experiment": "β-chemokine levels (ELISA) in cultures of purified activated CD8 lymphocytes", "type": "cell-based, human"}, "[4]": {"test_system": "CD8 lymphocytes", "type": "cell-based, human", "experimental": "as §1\nThe impact of cell cycle arrest in β-chemokine levels was evaluated by measuring chemokine levels in supernatants of cell cultures containing compounds known to cause cell cycle arrest. Levels of the β-chemokines RANTES, MIP-1α, and MIP-1β were measured by using commercial ELISA kits (R &D Systems). Cell cycle arrest in G1 was induced by culturing of the cells in the presence of aphidicolin (APH), sodium butyrate (SB), hydroxyurea (HU), roscovitine (RC), or olomoucine (OL). Arrest in late S phase was induced by culture of cells in the presence of resveratrol. G2 cycle arrest was induced by the compounds nocodazole and Colcemid. All compounds were purchased from Sigma except RC and OL, which were from Calbiochem. Arrest of cell cycle progression in the presence of G1 cytostatic agents was measured by propidium iodide staining followed by fluorescence-activated cell sorter (FACS) analysis (Noguchi, et al., 1991). This method may be used to test any compound for ability to arrest the G1 phase in a cell cycle.\nIn the experiments described thus far, total PBMCs had been used. […] Negatively selected CD8^+ lymphocytes were activated by anti-CD3 plus IL-2 treatment for 3 days. Activated cells were cultured in the presence of IL-2 and HU (100 and 200 μM) for 24 or 48 h, time points at which cell proliferation and supernatant chemokine levels were assayed. Cell proliferation was determined by trypan blue staining, [^3H]thymidine incorporation in DNA, and percentage of cells in S phase as assessed by propidium iodide staining (FIG. 4). […] Similarly, the percentage of cells in S phase increased in the absence of HU, whereas it decreased in its presence. […]\nTo investigate whether increased levels of supernatant chemokines upon cell cycle arrest are cell cycle phase-specific, the effect of G2 arrest in chemokine production next was evaluated. […]"}, "[5]": {"test_system": "HIV-1 BaL", "experiment": "HIV-1-suppressive activity of supernatants from HU-treated PBMCs, infected PBMCs, p24", "type": "cell-based", "conditions": "100 μM HU in fresh medium, day 7 after infection", "method": "The antiviral activity of the supernatants collected from cultures of PBMCs that had been exposed to 100 μM HU for 7 days [supernatants referred to as conditioned medium (CM)] was evaluated in PBMCs infected with HIV-1 BaL and HIV-1 IIIb. Briefly, PHA-activated PBMCs were infected with each virus at 100 tissue culture 50% infective dose units (TCID50)/10^6 PBMCs or 10 TCID50/10^6 PBMCs for 2 h at 37° C. Infected cells were cultured in IL-2 medium alone, IL-2 medium with 100 μM HU, IL-2 medium containing 50% supernatant from HU-treated PBMCs (CM/HU), or IL-2 medium containing 50% supernatant from control-treated PBMCs (CM/control). On day 3 after infection, culture medium was replaced with fresh medium of the same kind as on day 1. Viral growth (measured by p24 levels in the supernatant) and cell viability (assayed by MTT) were determined on day 7 after infection.\nThese culture supernatants were referred to as CM/HU. Culture supernatants from activated PBMCs cultured under the same conditions in the absence of HU (CM/control) also were harvested.\nThe antiviral activity of the CM was evaluated in the infection of PBMCs with HIV-1 BaL (a prototype R5-using virus) and HIV-1 IIIb (a prototype X4-using virus). […] Virus replication and cell viability were measured on day 7 after infection."}, "[6]": {"test_system": "HIV", "experiment": "Cyclic therapy trial with HU during off-ARV periods: viral load", "type": "in vivo", "conditions": "for Viral load: 7 days on ARV's alternated by 14 days off ARV's but on HU", "from_the_text": "(§2) The protocol used in the present invention expands on the NIH's concept of Cyclic Therapy. Cyclic therapy is a strategy in which patients can maintain viral suppression despite alternating between 7 days of taking ARV medications and 7 days of taking no medications. Compared to the NIH trail of short cycle of 7 days intermittently off therapy, in our trial, the G1 cycle agent HU is being used to maintain viral suppression during an extended off medication cycle of 14-28 days. The off period is followed by 7 days of combination antiretroviral therapy. This has allowed study participants to be on ⅔ fewer medications but still maintain viral control and immune reconstitution.\n(§3) Four patients are enrolled in the trial. Patients in this study have benefited from decreased drug related toxicities, relief from difficult financial sacrifices to stay on ARV's, and improved adherence to medications."}, "[7]": {"test_system": "CD4", "experiment": "Cyclic therapy trial with HU during off-ARV periods: absolute CD4 count", "type": "in vivo, human", "conditions": "7 days on ARV's alternated by 14 days off ARV's but on HU", "from_the_text": "as §2, §3"}, "[8]": {"test_system": "HIV-1 ADA", "experiment": "Antiviral activity of TAK-779 with or without RAPA in PBMCs (p24)", "type": "cell-based", "experimental": "For infection of PBMCs, fresh donor PBMCs were cultured for 7 days in medium containing IL-2. On day 7, cells were exposed to the virus for 3 h. Nonadsorbed virus was removed by washing cells with PBS three times. Infected cells were cultured in IL-2 medium. Infection of MDMs was carried out as described before (Pemo, et al. 1993). Unless otherwise indicated, PBMCs were infected by using a moi of 0.001, and monocyte-derived macrophages (MDMs) were infected by using a moi of 0.002. Virus growth was monitored in culture supernatants by measuring p24 antigen levels by ELISA (NEN) or by measuring viral RT activity in an RT assay (Willey, et al., 1988).\nTo test this hypothesis, donor PBMCs were cultured in IL-2 medium in the absence or presence of RAPA (1, 10, and 100 nM). […] Infected cells were cultured in the presence of RAPA (same concentration as during pretreatment) plus 0.1 nM TAK-779. Virus production was determined 7 days after infection (FIG. 11)."}, "[9]": {"conditions": "100 μM HU, day 8, levels as ng/ml"}, "[10]": {"conditions": "at G1 cytostatic concentrations of the drug, PHA-activated PBMCs"}}, "note": "Where two headings read alike, the source gives them in different places.", "data": [{"molecule": "C[C@@]1(CO)[C@H](O)CC[C@@]2(C)[C@H]1CC[C@H]1C[C@@H]3C[C@@]12CC[C@]3(O)CO", "note": "[APH, aphidicolin]", "values": [{"measurement": "chemokine values", "setting": "[1]; 0.5 μM APH, PHA-activated PBMCs", "value": "Increased chemokine values"}, {"measurement": "cell proliferation", "setting": "[2]; 0.5 μM APH", "value": "reduced cell proliferation"}]}, {"molecule": "CN[C@H]1CCc2cc(OC)c(OC)c(OC)c2-c2ccc(OC)c(=O)cc21", "note": "[Colcemid]", "values": [{"measurement": "chemokine content on G2 cycle arrest", "setting": "[3]; same as nocodazole (lower than untreated), data not shown", "value": "same results"}]}, {"molecule": "NC(=O)NO", "note": "[HU, hydroxyurea]", "values": [{"measurement": "chemokine levels", "setting": "[1]", "value": "increased chemokine levels"}, {"measurement": "MIP-1α level increase compared with untreated control", "setting": "[1]; [9]", "value": 5.4, "unit": "fold"}, {"measurement": "MIP-1β level increase compared with untreated control", "setting": "[1]; [9]", "value": 4, "unit": "fold"}, {"measurement": "RANTES level increase compared with untreated control", "setting": "[1]; [9]", "value": 3.4, "unit": "fold"}, {"measurement": "MIP-1α level increase, ng per 10^6 cells", "setting": "[1]; 100 μM HU, per viable cell", "value": 25.4, "unit": "fold"}, {"measurement": "MIP-1β level increase, ng per 10^6 cells", "setting": "[1]; 100 μM HU, per viable cell", "value": 18.4, "unit": "fold"}, {"measurement": "RANTES level increase, ng per 10^6 cells", "setting": "[1]; 100 μM HU, per viable cell", "value": 16.2, "unit": "fold"}, {"measurement": "concentrations (ng/ml) of RANTES, MIP-1α, and MIP-1β in the culture supernatants", "setting": "[1]; PHA-activated PBMCs, HU for 14 days, dose-dependent", "value": "increased concentrations"}, {"measurement": "cell numbers", "setting": "[2]; PHA-activated PBMCs in presence of HU, trypan blue", "value": "lower"}, {"measurement": "MIP-1α level increase", "setting": "[3]; 100 μM HU, 48 h", "value": 3.7, "unit": "fold"}, {"measurement": "MIP-1β level increase", "setting": "[3]; 100 μM HU, 48 h", "value": 4.7, "unit": "fold"}, {"measurement": "RANTES level increase", "setting": "[3]; 100 μM HU, 48 h", "value": 1.9, "unit": "fold"}, {"measurement": "chemokine production levels", "setting": "[3]; 200 μM HU, 48 h, compared with 100 μM", "value": "Slightly lower increases"}, {"measurement": "percentage of cells in S phase", "setting": "[4]; HU 100 and 200 μM, propidium iodide", "value": "decreased"}, {"measurement": "cell number and thymidine incorporation between 24 and 48 h", "setting": "[4]; HU 100 and 200 μM, doubled in absence of HU", "value": "remained constant or decreased"}, {"measurement": "inhibition of HIV-1 BaL replication", "setting": "[5]", "value": "< 10", "unit": "%"}, {"measurement": "inhibition at 100 µM", "setting": "[5]; Human immunodeficiency virus 1, BAL, PBMC, 168 h, read-out: inhibition of HIV-1 BaL replication", "value": 8, "unit": "%"}, {"measurement": "Viral load", "setting": "[6]; Patient 1, 6 wks", "value": 72, "unit": "Copies/ml"}, {"measurement": "Viral load", "setting": "[6]; Patient 1, 9 wks", "value": 158, "unit": "Copies/ml"}, {"measurement": "Viral load", "setting": "[6]; Patient 1, 12 wks", "value": 114, "unit": "Copies/ml"}, {"measurement": "Viral load", "setting": "[6]; Patient 1, 18 wks", "value": 973, "unit": "Copies/ml"}, {"measurement": "Viral load", "setting": "[6]; Patient 1, column head 3 wks off continuous therapy", "value": 0, "unit": "Copies/ml"}, {"measurement": "Viral load", "setting": "[6]; Patient 1, column head 15 wks", "value": 322, "unit": "Copies/ml"}, {"measurement": "Viral load", "setting": "[6]; Patient 1, column head 21 wks", "value": 0, "unit": "Copies/ml"}, {"measurement": "Viral load", "setting": "[6]; Patient 2, 3 wks", "value": 0, "unit": "c/ml"}, {"measurement": "Viral load", "setting": "[6]; Patient 2, 6 wks", "value": 0, "unit": "c/ml"}, {"measurement": "Viral load", "setting": "[6]; Patient 2, 9 wks", "value": 0, "unit": "c/ml"}, {"measurement": "Viral load", "setting": "[6]; Patient 2, 12 wks", "value": 0, "unit": "c/ml"}, {"measurement": "Viral load", "setting": "[6]; Patient 2, 18 wks", "value": 0, "unit": "c/ml"}, {"measurement": "Viral load", "setting": "[6]; Patient 2, column head 15 wks", "value": 0, "unit": "c/ml"}, {"measurement": "Viral load", "setting": "[6]; Patient 3, 3 wks", "value": 0, "unit": "c/ml"}, {"measurement": "Viral load", "setting": "[6]; Patient 3, 6 wks", "value": 0, "unit": "c/ml"}, {"measurement": "Viral load", "setting": "[6]; Patient 3, 9 wks", "value": 0, "unit": "c/ml"}, {"measurement": "Viral load", "setting": "[6]; Patient 3, 12 wks", "value": 0, "unit": "c/ml"}, {"measurement": "viral suppression despite discontinuation of primary anti-retroviral drugs", "setting": "[6]; all three patients, at least 3 cycles of treatment", "value": "persistent viral suppression"}, {"measurement": "Absolute CD4 count", "setting": "[7]; Patient 1, 3 wks", "value": 377}, {"measurement": "Absolute CD4 count", "setting": "[7]; Patient 1, column head 21 wks", "value": 518}, {"measurement": "Absolute CD4 count", "setting": "[7]; Patient 2, 3 wks", "value": 1256}, {"measurement": "Absolute CD4 count", "setting": "[7]; Patient 2, 18 wks", "value": 973}, {"measurement": "Absolute CD4 count", "setting": "[7]; Patient 3, 3 wks", "value": 934}, {"measurement": "Absolute CD4 count", "setting": "[7]; Patient 3, 12 wks", "value": 995}]}, {"molecule": "CC[C@H](CO)Nc1nc(NCc2ccccc2)c2ncn(C(C)C)c2n1", "note": "[RC, roscovitine]", "values": [{"measurement": "chemokine levels", "setting": "[1]; [10]", "value": "increased chemokine levels"}]}, {"molecule": "CCCC(=O)[O-].[Na+]", "note": "[SB, sodium butyrate]", "values": [{"measurement": "chemokine levels", "setting": "[1]; [10]", "value": "increased chemokine levels"}]}, {"molecule": "Cc1ccc(-c2ccc3c(c2)C=C(C(=O)Nc2ccc(C[N+](C)(C)C4CCOCC4)cc2)CCC3)cc1.[Cl-]", "note": "[TAK-779]", "values": [{"measurement": "inhibition of virus replication", "setting": "[8]; 0.1 nM TAK-779, absence of RAPA, day 7", "value": 21, "unit": "%"}, {"measurement": "virus inhibition due to TAK-779", "setting": "[8]; 0.1 nM TAK-779 in presence of 1 nM RAPA", "value": 74.5, "unit": "%"}, {"measurement": "virus inhibition due to TAK-779", "setting": "[8]; 0.1 nM TAK-779 in presence of 10 nM RAPA", "value": 89, "unit": "%"}, {"measurement": "virus inhibition due to TAK-779", "setting": "[8]; 0.1 nM TAK-779 in presence of 100 nM RAPA", "value": 96, "unit": "%"}]}, {"molecule": "COC(=O)Nc1nc2ccc(C(=O)c3cccs3)cc2[nH]1", "note": "[nocodazole]", "values": [{"measurement": "chemokine content", "setting": "[3]; 0.01 μg/ml nocodazole, 48 h, G2 arrest", "value": "lower than in the untreated controls"}, {"measurement": "cell cycle distribution", "setting": "[4]; 0.01 μg/ml nocodazole, 48 h", "value": "accumulation of cells in G2"}]}, {"molecule": "Oc1ccc(C=Cc2cc(O)cc(O)c2)cc1", "note": "[resveratrol]", "values": [{"measurement": "chemokine levels on cell cycle arrest in late S", "setting": "[3]; 10 μM resveratrol, data not shown", "value": "lower than the untreated control"}]}]}
